Source: patent publication US20110028447A1, “INDAZOLE DERIVATIVES” (Pfizer Inc., priority 2008, published 2011)
pKi: −log10 of the molar value.

These molecules were tested against human CB1 receptor (Homo sapiens, UniProt P21554) (assay: Human CB1 receptor binding, [3H] CP-55,940 displacement on HEK cell membranes). Details: CB1 Ki.
Sequence of human CB1 receptor (P21554 whole entry): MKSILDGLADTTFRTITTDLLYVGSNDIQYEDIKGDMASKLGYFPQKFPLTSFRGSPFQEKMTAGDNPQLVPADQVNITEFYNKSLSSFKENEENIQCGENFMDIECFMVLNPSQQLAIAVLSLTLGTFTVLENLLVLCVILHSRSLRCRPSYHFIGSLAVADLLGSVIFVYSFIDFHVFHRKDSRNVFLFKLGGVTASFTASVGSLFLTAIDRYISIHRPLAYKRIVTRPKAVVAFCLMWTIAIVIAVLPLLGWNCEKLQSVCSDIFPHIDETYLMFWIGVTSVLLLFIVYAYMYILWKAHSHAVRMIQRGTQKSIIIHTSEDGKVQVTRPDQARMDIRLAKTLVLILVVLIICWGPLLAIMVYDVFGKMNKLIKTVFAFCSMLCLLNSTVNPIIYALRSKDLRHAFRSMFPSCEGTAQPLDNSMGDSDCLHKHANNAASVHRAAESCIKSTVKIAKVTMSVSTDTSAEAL
Set-up: expressed in transfected cells; host or cells: HEK cells, doxycycline-induced; membrane preparation
Protocol: The Human CB1 receptor binding affinity and other biological activities of the compounds of this invention are determined by the following procedures. Membrane preparation: Human Embryonic Kidney (HEK) Cells expressing the human CB1 receptor under transcriptional regulation of a tetracycline inducible promoter were grown in Dulbecco's Modified Essential Medium with sodium pyruvate (Invitrogen, Carlsbad, Calif.) containing 10% tetracycline free fetal bovine serum (Clonetech, Mountain View, Calif.) 100 μg/ml hygromycin (Calbiochem, San Diego, Calif.), 5 μg/ml blasticidin (Invitrogen). CB1 receptor expression was induced by addition of 1 μg/ml doxycycline (Calbiochem) and incubation for an additional 24 hours. Cells were released from flasks using Cell Dissociation Buffer (Invitrogen). Cells were pelleted by centrifugation at 500×G for 5 minutes. Membranes were prepared by resuspending cells in ice cold TEE Buffer (25 mM Tris pH 7.4, 5 mM EDTA, 5 mM EGTA, Complete Protease Inhibitor (Roche, Basel, Switzerland)). Cells were lysed with 12 strokes of a dounce homogenizer. Unlysed cells were pelleted by centrifugation at 500×G for 5 minutes. Membranes were pelleted by centrifugation at 25,000×G for 30 minutes. Membranes were resuspended in TEE, dounced 12 strokes, and pelleted a second time at 25,000×G for 30 minutes. Membrane pellet was resuspended in 50 mM Tris pH 7.4, 100 mM NaCl, 3 mM MgCl2, 0.2 mM EGTA, Complete Protease Inhibitor (Roche). Protein concentration was determined using the Micro-BCA Protein Assay Kit (Pierce, Rockford, Ill.) using BSA as a standard. Membranes were quick frozen and stored at −80 degrees Celsius until use.
Binding experiments: 50 μl of test compound was incubated with 50 μl of [^3H] CP-55,940 (Perkin Elmer, Boston, Mass.) (final concentration=[…]) and 150 μl of membrane homogenate (1 μg/well) in polypropylene 96-well plates (Corning, Acton, Mass.). Final reaction conditions were 50 mM Tris pH 7.4, 100 mM NaCl, 3 mM MgCl2, 0.2 mM EGTA, 0.04% BSA. Nonspecific binding was determined by incubation with 50 μM WIN-55, 212-2 (Tocris, Ellisville, Mo.). After incubation at room temperature for 60 minutes reactions were harvested by vacuum filtration through Unifilter GF/B-96 filters (Perkin Elmer) that had been presoaked in assay buffer containing 0.5% BSA (Sigma, St. Louis, Mo.) using a FilterMate Plate Harvester (Perkin Elmer). Filters were rinsed 4 times with 50 mM Tris pH 7.4, 0.025% Tween-20 and dried at 50 degrees Celsius for at least 30 minutes. 40 μl of Microscint-20 (Perkin Elmer) was added per well, and plates were counted using a Top-Count Microplate Scintillation Counter (Perkin Elmer). Binding data were analyzed and EC50 and K, values calculated using Graph Pad Prism 4.0 Software.
`CC(C)(C)[C@H](NC(=O)c1nn(Cc2ccc(C#N)cc2)c2c(F)cccc12)C(=O)N[C@H]1C[C@H](O)C1` [Example 355] was tested, and the pKi was 7.28. For `CC(C)NC(=O)[C@@H](NC(=O)c1nn(Cc2ccc(F)cc2)c2ccc(Cl)cc12)C(C)(C)C` [Example 437], the pKi was 8.55. Molecule `CC(C)(C)[C@H](NC(=O)c1nn(Cc2ccc(C#N)cc2)c2c(F)cccc12)C(=O)NC[C@H]1C[C@@H]1CO` [Example 486] has a pKi of 7.36. `CC(C)(C)[C@H](NC(=O)c1nn(Cc2ccc(F)cc2)c2ccccc12)C(=O)N1CCS(=O)(=O)CC1` [Example 269] was tested, and the pKi was 7.62. For `CC(C)(C)[C@H](NC(=O)c1nn(Cc2ccc(F)cc2)c2ccccc12)C(=O)NC[C@@H](O)C(N)=O` [Example 314], the pKi was 6.89. Work on `CC(C)(C)[C@H](NC(=O)c1nn(Cc2ccc(C#N)cc2)c2cc(F)ccc12)C(=O)NC[C@H](O)CO` [Example 298] yielded a pKi of 6.74. Work on `NC(=O)[C@H](Cc1ccccc1)NC(=O)c1nn(Cc2ccc(F)cc2)c2ccccc12` [Example 4, N-α-{[1-(4-fluorobenzyl)-1H-indazol-3-yl]carbonyl}-L-phenylalaninamide] yielded a pKi of 6.15. In the case of `CC(C)(C)[C@H](NC(=O)c1nn(Cc2ccc(C#N)cc2)c2ccc(Cl)cc12)C(=O)NC[C@H](O)CO` [Example 441], the pKi was less than 6.40. For `COC(=O)[C@@H](O)CNC(=O)[C@@H](NC(=O)c1nn(Cc2ccc(C#N)cc2)c2ccccc12)C(C)(C)C` [Example 237], the pKi was less than 6.40. `COc1cc(C#N)ccc1Cn1nc(C(=O)N[C@H](C(=O)NC[C@H](O)CO)C(C)(C)C)c2ccccc21` [Example 387] was tested, and the pKi was less than 6.40. `CC(C)(C)[C@H](NC(=O)c1nn(Cc2ccc(C#N)cc2)c2c(F)cccc12)C(=O)NCCS(N)(=O)=O` [Example 222] was tested, and the pKi was 7.67. With `CC(C)(C)[C@H](NC(=O)c1nn(Cc2ccc(C#N)cc2)c2c(F)cccc12)C(=O)NCC1CCC(=O)N1` (some centres unmarked) [Example 402] the pKi was 6.56. With `COc1cc(C#N)ccc1Cn1nc(C(=O)N[C@H](C(N)=O)C(C)(C)C)c2ccccc21` [Example 385] the pKi was 6.78. `CC(C)(C)[C@@H](NC(=O)c1nn(Cc2ccc(C#N)cc2)c2ccccc12)C(N)=O` [Example 383] gave a pKi of less than 6.40. Work on `CC(C)(C)[C@H](NC(=O)c1nn(Cc2ccc(C#N)cc2F)c2c(F)c(F)ccc12)C(=O)NCCS(C)(=O)=O` [Example 362] yielded a pKi of 6.90. `CC(C)(C)[C@H](NC(=O)c1nn(Cc2ccc(C#N)cc2)c2ccccc12)C(=O)NC[C@H]1C[C@@H]1CO` [Example 485] was tested, and the pKi was 6.82. Work on `CC(C)(C)[C@H](NC(=O)c1nn(Cc2ccc(C#N)cc2)c2c(F)cccc12)C(=O)N[C@H]1CNC(=O)C1` [Example 453] yielded a pKi of less than 6.40. `CC(C)(C)[C@H](NC(=O)c1nn(Cc2ccc(C(F)(F)F)cc2)c2ccccc12)C(=O)NCCS(C)(=O)=O` [Example 258] gave a pKi of less than 6.40. In the case of `COc1cc(C#N)ccc1Cn1nc(C(=O)N[C@H](C(=O)NCCS(C)(=O)=O)C(C)(C)C)c2ccccc21` [Example 392], the pKi was less than 6.40. With `CC(C)(C)[C@H](NC(=O)c1nn(Cc2ccc(C#N)cc2)c2cc(F)ccc12)C(=O)N[C@@H]1CNC(=O)C1` [Example 458] the pKi was 6.92. Work on `CC(C)(C)[C@H](NC(=O)c1nn(Cc2ccc(C#N)cc2)c2ccc(Cl)cc12)C(=O)NCCO` [Example 447] yielded a pKi of 6.77. In the case of `CC(C)(C)[C@H](NC(=O)c1nn(Cc2ccc(C#N)cc2F)c2c(F)cccc12)C(=O)NCCS(C)(=O)=O` [Example 370], the pKi was 6.88. `CC(C)(C)[C@H](NC(=O)c1nn(Cc2ccc(F)cc2)c2ccc(Cl)cc12)C(=O)NC1CC1` [Example 436] showed a pKi of 8.95. `CC(C)(C)[C@H](NC(=O)c1nn(Cc2ccc(C#N)cc2F)c2c(F)c(F)ccc12)C(=O)NCCS(N)(=O)=O` [Example 363] showed a pKi of 7.24. In the case of `Cc1cc(Cn2nc(C(=O)N[C@H](C(N)=O)C(C)(C)C)c3ccccc32)no1` [Example 5, N-[(1S)-1-(aminocarbonyl)-2,2-dimethylpropyl]-1-[(5-methylisoxazol-3-yl)methyl]-1H-indazole-3-carboxamide], the pKi was 6.02. Molecule `CC(C)(C)[C@H](NC(=O)c1nn(Cc2ccc(F)cc2)c2ccccc12)C(=O)N[C@@H](CO)C(=O)O` [Example 240] has a pKi of 6.82. Work on `CC(C)(C)[C@H](NC(=O)c1nn(Cc2ccc(C#N)cc2)c2ccccc12)C(=O)N1CCS(=O)(=O)CC1` [Example 268] yielded a pKi of less than 6.40. Molecule `Cn1ccc(NC(=O)[C@@H](NC(=O)c2nn(Cc3ccc(F)cc3)c3ccccc23)C(C)(C)C)n1` [Example 515] has a pKi of 7.43. `CC(C)(C)[C@H](NC(=O)c1nn(Cc2ccc(F)cc2)c2ccc(Cl)cc12)C(=O)NCCC(N)=O` [Example 477] gave a pKi of 7.55.

Same assay, conditions: read-out: CB1 Ki
In the case of `Cc1cc(O)nc(CNC(=O)[C@@H](NC(=O)c2nn(Cc3ccc(C#N)cc3)c3ccccc23)C(C)(C)C)n1` [Example 350], the pKi was 6.64. `CC(C)(C)[C@H](NC(=O)c1nn(Cc2ccc(F)cc2F)c2ccccc12)C(=O)NCCN1CCNC(=O)C1` [Example 468] was tested, and the pKi was 7.63. Work on `CC(C)(C)[C@H](NC(=O)c1nn(Cc2ccc(F)cc2)c2ccccc12)C(=O)NCCN1CCNC(=O)C1` [Example 467] yielded a pKi of 7.27. Molecule `CN1CC(CNC(=O)[C@@H](NC(=O)c2nn(Cc3ccc(C#N)cc3)c3ccccc23)C(C)(C)C)CC1=O` (some centres unmarked) [Example 408] has a pKi of less than 6.40. Work on `Cc1cc(O)nc(NCCNC(=O)[C@@H](NC(=O)c2nn(Cc3ccc(F)cc3)c3ccccc23)C(C)(C)C)n1` [Example 481] yielded a pKi of 7.28. `CC(C)(C)[C@H](NC(=O)c1nn(Cc2ccc(C#N)cc2)c2ccccc12)C(=O)NCCN1CCNC(=O)C1` [Example 465] gave a pKi of less than 6.40. `CC(C)(C)[C@H](NC(=O)c1nn(Cc2ccc(F)cc2)c2ccccc12)C(=O)NCC(=O)NC[C@H](O)CO` [Example 522] gave a pKi of less than 6.40. With `CC(C)(C)[C@H](NC(=O)c1nn(Cc2ccc(F)cc2)c2ccccc12)C(=O)N1CCC[C@H]1C(=O)NCCO` [Example 293] the pKi was less than 6.40. With `CC(C)(C)[C@H](NC(=O)c1nn(Cc2ccc(F)cc2)c2ccccc12)C(=O)N1CCC(F)(C(N)=O)CC1` [Example 343] the pKi was 6.67. With `CC(C)(C)[C@H](NC(=O)c1nn(Cc2ccc(F)cc2)c2ccccc12)C(=O)NCC(=O)N1C[C@@H](O)[C@H](O)C1` [Example 378] the pKi was 6.80. In the case of `COc1cc(CNC(=O)[C@@H](NC(=O)c2nn(Cc3ccc(C#N)cc3)c3c(F)cccc23)C(C)(C)C)on1` [Example 312], the pKi was 6.75. In the case of `CC(C)(C)[C@H](NC(=O)c1nn(Cc2ccc(F)cc2)c2ccccc12)C(=O)NCC(=O)NCC(=O)O` [Example 495], the pKi was 6.89. Molecule `CC(C)(C)[C@H](NC(=O)c1nn(Cc2ccc(C#N)cc2)c2cc(F)ccc12)C(=O)NCc1nnc(C(=O)NCCO)o1` [Example 463] has a pKi of 6.56. `COc1cc(CNC(=O)[C@@H](NC(=O)c2nn(Cc3ccc(C#N)cc3)c3ccccc23)C(C)(C)C)on1` [Example 311] gave a pKi of 6.83. For `CCN(CC)C[C@@H](O)CNC(=O)[C@@H](NC(=O)c1nn(Cc2ccc(F)cc2)c2ccccc12)C(C)(C)C` [Example 505], the pKi was 6.52. Work on `CC(C)(C)[C@H](NC(=O)c1nn(Cc2ccc(F)cc2)c2c(F)cccc12)C(=O)NCCN1CCNC(=O)C1` [Example 474] yielded a pKi of 7.39. For `CC(C)(C)[C@H](NC(=O)c1nn(Cc2ccc(F)cc2)c2c(Cl)cccc12)C(=O)NCc1ccc(C(=O)O)cc1` [Example 426], the pKi was 7.05. For `CC(C)(C)[C@H](NC(=O)c1nn(Cc2ccc(F)cc2)c2ccccc12)C(=O)NC[C@H](O)CN1CCCC1` [Example 503], the pKi was 6.49.
